In ChEMBL document CHEMBL1255553, “Unusual antimalarial meroditerpenes from tropical red macroalgae” (Bioorg Med Chem Lett, 2010):
pIC50: −log10 of the molar value. In brackets after ≈: the same amount, converted by molar mass.

Columns and labels:
[1] = tested on: Candida albicans; assay: Antimicrobial activity against amphotericin B-resistant Candida albicans; type: functional
[2] = tested on: Enterococcus faecium; assay: Antimicrobial activity against vancomycin-resistant Enterococcus faecium; type: functional
[3] = tested on: Plasmodium falciparum; assay: Antimalarial activity against Plasmodium falciparum; type: functional, organism-based
[4] = tested on: Staphylococcus aureus; assay: Antimicrobial activity against methicillin-resistant Staphylococcus aureus; type: functional
[5] = tested on: CCRF-CEM; assay: Anticancer activity against human CCRF-CEM cells; type: functional, cell-based
[6] = tested on: SHP77; assay: Anticancer activity against human SHP77 cells; type: functional, cell-based

| Compound | MIC [1] [µM] | MIC [2] [µM] | pIC50 [3] | MIC [4] [µM] | MIC [3] [µM] | pIC50 [5] | pIC50 [6] |
| --- | --- | --- | --- | --- | --- | --- | --- |
| CC1=C2Cc3cc(ccc3O)C(=O)O[C@H](C(C)(C)Br)CC[C@](C)(O)[C@H](Br)CC[C@]2(C)[C@@H](Br)CC1 | 49 (≈ 32.6 µg/mL) | 5.9 (≈ 3.93 µg/mL) | 6.15 | 5.9 (≈ 3.93 µg/mL) | – | – | – |
| CC1=C2Cc3cc(ccc3O)C(=O)O[C@H](C(C)(C)O)CC[C@]3(C)O[C@H]3C/C=C(\C)C2CC1 (some centres not stated) | > 500 | – | < 4.00 | – | – | – | – |
| Cc1cc(O)cc(CC[C@](C)(O)CCC[C@H](C)CCC[C@H](C)CCCC(C)C)c1O | – | > 500 | – | > 500 | 220 (≈ 92.5 µg/mL) | – | – |
| CC1=CC(=O)C=C(CC[C@](C)(O)CCC[C@H](C)CCC[C@H](C)CCCC(C)C)C1=O | > 500 | > 500 | 5.00 | > 500 | – | – | – |
| CC(C)=CCC[C@@](C)(O)[C@@H]1CC/C(C)=C/CC/C(C)=C/Cc2cc(ccc2O)C(=O)O1 [CALLOPHYCOLIDE A] | > 250 | 9.1 (≈ 3.88 µg/mL) | 5.28 | 9.1 (≈ 3.88 µg/mL) | – | 5.12 | 5.04 |
| Cc1cc(O)c(C)c(CC[C@](C)(O)CCC[C@H](C)CCC[C@H](C)CCCC(C)C)c1O | – | > 500 | 3.72 | > 500 | – | – | – |
